± gives the uncertainty stated by the source.
Assay: xn = mol fraction of the nth substance listed

COCOC + C1C[C@@H]2[C@H]3CC[C@H](C3)[C@@H]2C1
viscosity [mPa·s], 100 kPa
Details | x1 = 0.1048 | x1 = 0.2024 | x1 = 0.3042 | x1 = 0.4061 | x1 = 0.5027 | x1 = 0.5936 | x1 = 0.7008 | x1 = 0.8058 | x1 = 0.9096
293.15 K | 2.257 ± 0.23 | 1.767 ± 0.18 | 1.398 ± 0.14 | 1.122 ± 0.11 | 0.901 ± 0.091 | 0.749 ± 0.075 | 0.616 ± 0.062 | – | 0.428 ± 0.043
298.15 K | 2.053 ± 0.21 | 1.606 ± 0.16 | 1.295 ± 0.13 | 1.043 ± 0.11 | 0.845 ± 0.085 | 0.704 ± 0.071 | 0.586 ± 0.059 | 0.45 ± 0.045 | 0.408 ± 0.041
303.15 K | 1.903 ± 0.19 | 1.483 ± 0.15 | 1.202 ± 0.12 | 0.964 ± 0.097 | 0.797 ± 0.08 | 0.664 ± 0.067 | 0.558 ± 0.056 | 0.433 ± 0.043 | 0.393 ± 0.039
308.15 K | 1.746 ± 0.18 | 1.408 ± 0.14 | 1.12 ± 0.11 | 0.908 ± 0.091 | 0.737 ± 0.074 | 0.628 ± 0.063 | 0.531 ± 0.053 | 0.421 ± 0.042 | 0.38 ± 0.038
313.15 K | 1.615 ± 0.16 | 1.3 ± 0.13 | 1.047 ± 0.11 | 0.846 ± 0.085 | 0.716 ± 0.072 | 0.594 ± 0.06 | 0.507 ± 0.051 | 0.402 ± 0.04 | 0.368 ± 0.037

CCCCCCCCC + CC1CCCCC1
viscosity [mPa·s], 101 kPa
Details | 293.15 K | 298.15 K | 303.15 K | 308.15 K
x2 = 0.0426 | 0.7162 ± 0.006 | 0.6637 ± 0.0056 | 0.6214 ± 0.0054 | –
x2 = 0.1052 | – | 0.664 ± 0.013 | 0.625 ± 0.012 | 0.585 ± 0.012
x2 = 0.1496 | 0.7103 ± 0.0062 | 0.6606 ± 0.0058 | 0.6176 ± 0.0055 | –
x2 = 0.198 | – | 0.66 ± 0.013 | 0.614 ± 0.012 | 0.58 ± 0.011
x2 = 0.2805 | 0.7065 ± 0.0065 | 0.6594 ± 0.0061 | 0.6151 ± 0.0058 | –
x2 = 0.299 | – | 0.658 ± 0.013 | 0.616 ± 0.012 | 0.578 ± 0.011
x2 = 0.3606 | 0.7056 ± 0.0067 | 0.66 ± 0.0063 | 0.6148 ± 0.006 | –
x2 = 0.4018 | – | 0.659 ± 0.012 | 0.616 ± 0.012 | 0.577 ± 0.011
x2 = 0.4418 | 0.707 ± 0.0069 | 0.6607 ± 0.0065 | 0.6168 ± 0.0062 | –
x2 = 0.4978 | – | 0.659 ± 0.012 | 0.617 ± 0.012 | 0.577 ± 0.011
x2 = 0.5953 | 0.7117 ± 0.0073 | 0.6639 ± 0.0069 | 0.6225 ± 0.0066 | –
x2 = 0.5982 | – | 0.661 ± 0.012 | 0.62 ± 0.012 | 0.578 ± 0.011
x2 = 0.6794 | 0.7158 ± 0.0076 | 0.6669 ± 0.0072 | 0.6292 ± 0.0068 | –
x2 = 0.6991 | – | 0.662 ± 0.012 | 0.618 ± 0.011 | 0.58 ± 0.011
x2 = 0.7579 | 0.7196 ± 0.0079 | 0.6709 ± 0.0074 | 0.6339 ± 0.0071 | –
x2 = 0.7995 | – | 0.665 ± 0.012 | 0.62 ± 0.011 | 0.582 ± 0.011
x2 = 0.8388 | 0.7243 ± 0.0082 | 0.6757 ± 0.0077 | 0.6383 ± 0.0073 | –
x2 = 0.9012 | – | 0.671 ± 0.012 | 0.626 ± 0.011 | 0.587 ± 0.011
x2 = 0.9078 | 0.7296 ± 0.0084 | 0.6788 ± 0.0079 | 0.6428 ± 0.0075 | –

C1COCO1 + CC#N
viscosity [mPa·s], 101 kPa
Details | x2 = 0.167 | x2 = 0.3109 | x2 = 0.4361 | x2 = 0.5461 | x2 = 0.6435 | x2 = 0.7302 | x2 = 0.8081 | x2 = 0.8783 | x2 = 0.942
298.15 K | 0.5233 ± 0.014 | 0.4737 ± 0.012 | 0.436 ± 0.011 | 0.4046 ± 0.01 | 0.3783 ± 0.0099 | 0.3591 ± 0.0094 | 0.3444 ± 0.009 | 0.338 ± 0.0088 | 0.3366 ± 0.0088
308.15 K | 0.4618 ± 0.012 | 0.4235 ± 0.011 | 0.3913 ± 0.01 | 0.3646 ± 0.0095 | 0.3419 ± 0.0089 | 0.3251 ± 0.0085 | 0.3134 ± 0.0082 | 0.3077 ± 0.0081 | 0.307 ± 0.0081
318.15 K | 0.4132 ± 0.011 | 0.3791 ± 0.0099 | 0.3502 ± 0.0092 | 0.3263 ± 0.0085 | 0.3065 ± 0.008 | 0.291 ± 0.0076 | 0.2817 ± 0.0074 | 0.278 ± 0.0073 | 0.2797 ± 0.0074

CC(=O)c1ccccc1 + CC#N
308.15 K, 101 kPa
Details | viscosity [mPa·s]
x1 = 0.048 | 0.34 ± 0.013
x1 = 0.1023 | 0.3845 ± 0.015
x1 = 0.1626 | 0.4361 ± 0.016
x1 = 0.2321 | 0.4959 ± 0.018
x1 = 0.3113 | 0.5746 ± 0.02
x1 = 0.4024 | 0.6736 ± 0.023
x1 = 0.5125 | 0.8002 ± 0.026
x1 = 0.6426 | 0.9514 ± 0.031
x1 = 0.8018 | 1.144 ± 0.036
x1 = 0.9135 | 1.284 ± 0.04

— the CheMixHub viscosity set
